The molecules below were run against T1, Mer (h) (Homo sapiens, UniProt Q12866) (assay: Enzymatic activity assay, Mer (h) kinase, [γ-33P]-ATP). Conditions: 10 μM [γ-33P]-ATP, 40 min, room temperature; read-out: Inhibitory Activity on Mer (h), IC50.
T1 construct: purchased
T1 sequence (Q12866 21-999): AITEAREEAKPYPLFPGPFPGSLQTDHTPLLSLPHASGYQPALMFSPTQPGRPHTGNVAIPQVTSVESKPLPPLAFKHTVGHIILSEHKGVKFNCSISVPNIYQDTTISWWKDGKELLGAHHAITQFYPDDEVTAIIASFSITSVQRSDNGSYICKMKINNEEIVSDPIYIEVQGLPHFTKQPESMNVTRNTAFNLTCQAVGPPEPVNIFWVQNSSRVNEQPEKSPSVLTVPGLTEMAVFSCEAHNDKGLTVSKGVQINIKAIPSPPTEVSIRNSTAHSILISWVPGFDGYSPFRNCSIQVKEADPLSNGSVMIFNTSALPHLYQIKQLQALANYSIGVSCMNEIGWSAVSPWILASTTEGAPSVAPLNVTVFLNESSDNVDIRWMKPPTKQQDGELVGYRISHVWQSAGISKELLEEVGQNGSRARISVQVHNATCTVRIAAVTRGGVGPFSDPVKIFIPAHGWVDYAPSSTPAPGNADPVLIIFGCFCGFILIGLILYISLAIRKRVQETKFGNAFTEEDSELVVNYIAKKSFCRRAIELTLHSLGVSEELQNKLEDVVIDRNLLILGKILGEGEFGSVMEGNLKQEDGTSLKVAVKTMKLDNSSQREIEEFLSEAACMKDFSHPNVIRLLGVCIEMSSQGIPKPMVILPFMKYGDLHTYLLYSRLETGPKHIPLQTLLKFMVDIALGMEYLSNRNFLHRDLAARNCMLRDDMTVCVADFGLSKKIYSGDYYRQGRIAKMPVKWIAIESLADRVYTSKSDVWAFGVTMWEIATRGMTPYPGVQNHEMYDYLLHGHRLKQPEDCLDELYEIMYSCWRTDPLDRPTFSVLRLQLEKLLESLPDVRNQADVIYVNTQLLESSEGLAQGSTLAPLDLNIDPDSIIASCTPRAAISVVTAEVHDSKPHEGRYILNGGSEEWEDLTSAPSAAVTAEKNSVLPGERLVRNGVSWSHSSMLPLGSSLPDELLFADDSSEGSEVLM
Assay type: biochemical
Protocol: Test samples: the compounds of the present invention, having structures and preparation methods shown above.
(1) Preparation of Compound Stock Solutions
Compounds were each dissolved in 100% DMSO to prepare stock solutions with a maximum concentration of 500 μM.
(2) Preparation of Compound Working Solutions
The compound stock solutions were diluted to final concentrations of 500 μM, 150 μM, 50 μM, 15 μM, 5 μM, 1.5 μM, 0.5 μM, 0.15 μM and 0.05 μM to prepare compound working solutions (50×).
(3) Preparation of different enzymatic reaction solutions
Mer (h) enzyme was dissolved in a mixture of 8 mM MOPS (pH 7.0), 0.2 mM EDTA, 30 mM NaCl and 250 μM GGMEDIYFEFMGGKKK to prepare an enzyme solution with a final concentration of 3.1 nM. An Mg/ATP mixture of 10 mM magnesium acetate and 10 μM [γ-^33P]-ATP was used to activate the enzymatic reaction.
The compound working solutions were added to a 384-well plate, with final concentrations of 10000 nM, 3000 nM, 1000 nM, 300 nM, 100 nM, 30 nM, 10 nM, 3 nM and 1 nM, respectively, and then different enzymatic reaction solutions prepared according to the above conditions were added. The reaction solutions were incubated at room temperature for 40 min, and then 0.5% phosphoric acid solutions were added to terminate the reaction. 10 μL of the reaction solution was added dropwise to P30 filter paper which was washed 4 times with a 0.425% phosphoric acid solution and once with methanol and then placed in a scintillation counter for detection. Gray analysis was performed on the results with Image J software, and IC50 values were calculated with GraphPad 5.0 software.
With `Nc1nccc(Oc2ccc(NC(=O)c3nn(C4CC4)cc(-c4ccc(F)cc4)c3=O)nc2)c1Cl` [Compound 17, N-(5-((2-amino-3-chloropyridin-4-yl)oxy)pyridin-2-yl)-1-cyclopropyl-5-(4-fluorophenyl)-4-oxo-1,4-dihydropyridazine-3-carboxamide] the IC50 was 2 nM. For `C=CCn1cc(-c2ccc(F)cc2)c(=O)c(C(=O)Nc2ccc(Oc3ccnc(N)c3Cl)nc2)n1` [Compound 39, 1-allyl-N-(6-((2-amino-3-chloropyridin-4-yl)oxy)pyridin-3-yl)-5-(4-fluorophenyl)-4-oxo-1,4-dihydropyridazine-3-carboxamide], the IC50 was 3 nM. Molecule `CC(C)n1cc(-c2ccc(F)cc2)c(=O)c(C(=O)Nc2ccc(Oc3ccnc(N)c3Cl)nc2)n1` [Compound 13, N-(6-((2-amino-3-chloropyridin-4-yl)oxy)pyridin-3-yl)-5-(4-fluorophenyl)-1-isopropyl-4-oxo-1,4-dihydropyridazine-3-carboxamide] has an IC50 of 8 nM. For `C=CCn1cc(-c2ccc(F)cc2)c(=O)c(C(=O)Nc2ccc(Oc3ccnc(N)c3Cl)cn2)n1` [Compound 35, 1-allyl-N-(5-((2-amino-3-chloropyridin-4-yl)oxy)pyridin-2-yl)-5-(4-fluorophenyl)-4-oxo-1,4-dihydropyridazine-3-carboxamide], the IC50 was 4 nM. For `CC(C)n1cc(-c2ccc(F)cc2)c(=O)c(C(=O)Nc2ccc(Oc3ccnc(N)c3Cl)cn2)n1` [Compound 11, N-(5-((2-amino-3-chloropyridin-4-yl)oxy)pyridin-2-yl)-5-(4-fluorophenyl)-1-isopropyl-4-oxo-1,4-dihydropyridazine-3-carboxamide], the IC50 was 9 nM. `Nc1nccc(Oc2cnc(NC(=O)c3nn(C4CC4)cc(-c4ccc(F)cc4)c3=O)nc2)c1Cl` [Compound 18, N-(5-((2-amino-3-chloropyridin-4-yl)oxy)pyrimidin-2-yl)-5-(4-fluorophenyl)-1-cyclopropyl-4-oxo-1,4-dihydropyridazine-3-carboxamide] was tested, and the IC50 was 6 nM. `CC(C)n1cc(-c2ccc(F)cc2)c(=O)c(C(=O)Nc2ncc(Oc3ccnc(N)c3Cl)cn2)n1` [Compound 12, N-(5-((2-amino-3-chloropyridin-4-yl)oxy)pyrimidin-2-yl)-5-(4-fluorophenyl)-1-isopropyl-4-oxo-1,4-dihydropyridazine-3-carboxamide] gave an IC50 of 8 nM. `Cn1cc(-c2ccc(F)cc2)c(=O)c(C(=O)Nc2ccc(Oc3ccnc(N)c3Cl)cn2)n1` [Compound 33, N-(5-((2-amino-3-chloropyridin-4-yl)oxy)pyridin-2-yl)-5-(4-fluorophenyl)-1-methyl-4-oxo-1,4-dihydropyridazine-3-carboxamide] was tested, and the IC50 was 3 nM. Molecule `C=CCn1cc(-c2ccc(F)cc2)c(=O)c(C(=O)Nc2ncc(Oc3ccnc(N)c3Cl)cn2)n1` [Compound 37] has an IC50 of 7 nM. Molecule `Nc1nccc(Oc2ccc(NC(=O)c3nn(C4CC4)cc(-c4ccc(F)cc4)c3=O)cn2)c1Cl` [Compound 19, N-(6-((2-amino-3-chloropyridin-4-yl)oxy)pyridin-3-yl)-1-cyclopropyl-5-(4-fluorophenyl)-4-oxo-1,4-dihydropyridazine-3-carboxamide] has an IC50 of 18 nM.
